From patent publication US9751858B2, “3-heteroaroylamino-propionic acid derivatives and their use as pharmaceuticals” (SANOFI, priority 2011, dated 2017) come the findings set out here.

Bounds are passed on as bounds.

This test addresses T1, Recombinant human cathepsin A (Homo sapiens, UniProt P10619).
T1 construct: Recombinant human cathepsin A (residues 29-480, with a C-terminal 10-His tag); 10-His (C); purchased R&D Systems 1049-SE
T1 sequence (P10619 29-326 limits assumed): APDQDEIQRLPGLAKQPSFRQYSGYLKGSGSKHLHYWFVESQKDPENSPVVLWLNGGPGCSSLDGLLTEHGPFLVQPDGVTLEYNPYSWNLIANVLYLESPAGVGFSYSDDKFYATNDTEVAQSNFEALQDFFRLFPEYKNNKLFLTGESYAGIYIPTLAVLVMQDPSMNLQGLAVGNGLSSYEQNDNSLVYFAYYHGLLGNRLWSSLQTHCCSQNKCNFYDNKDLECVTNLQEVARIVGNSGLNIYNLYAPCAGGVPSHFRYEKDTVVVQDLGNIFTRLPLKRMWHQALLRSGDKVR
T1 sequence (P10619 327-480 limits assumed): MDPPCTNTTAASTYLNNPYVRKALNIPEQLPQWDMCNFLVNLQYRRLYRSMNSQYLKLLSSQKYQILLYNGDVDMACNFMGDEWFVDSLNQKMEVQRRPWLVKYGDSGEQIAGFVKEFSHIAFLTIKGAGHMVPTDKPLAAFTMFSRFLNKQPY
Kind of test: Cathepsin A inhibitory activity. The class given is biochemical. To be noted: activated recombinant human cathepsin A 833 ng/ml, Bodipy FL-labeled bradykinin 2 μM, pH 5.5, 15 min room temperature. On the procedure:
a) Cathepsin a Inhibitory Activity
Briefly, cathepsin A was incubated at 10 μg/ml with cathepsin L at 1 μg/ml in activation buffer (25 mM 2-(morpholin-4-yl)-ethanesulfonic acid (MES), pH 6.0, containing 5 mM dithiothreitol (DTT)) for 15 min at 37° C.
The activated cathepsin A was diluted in assay buffer (25 mM MES, pH 5.5, containing 5 mM DTT) and mixed with the test compound (dissolved in assay buffer containing (v/v) 3% DMSO) or, in the control experiments, with the vehicle in a multiple assay plate. After incubation for 15 min at room temperature, as substrate then bradykinin carrying an N-terminal ®Bodipy FL (4,4-difluoro-5,7-dimethyl-4-bora-3a,4a-diaza-s-indacene-3-propionyl) label (JPT Peptide Technologies GmbH; dissolved in assay buffer) was added to the mixture. […] After incubation for 15 min at room temperature the reaction was stopped by the addition of stop buffer (130 mM 2-(4-(2-hydroxy-ethyl)-piperazin-1-yl)-ethanesulfonic acid, pH 7.4, containing (v/v) 0.013%® Triton X-100, 0.13% Coating Reagent 3 (Caliper Life Sciences), 6.5% DMSO and 20 μM ebelactone B (Sigma, # E0886)).
Uncleaved substrate and product were then separated by a microfluidic capillary electrophoresis on a LabChip® 3000 Drug Discovery System (12-Sipper-Chip; Caliper Life Sciences) and quantified by determination of the respective peak areas. Substrate turnover was calculated by dividing product peak area by the sum of substrate and product peak areas, and the enzyme activity and the inhibitory effect of the test compound thus quantified.
The term IC50 denotes the concentration that inhibits the measured activity by half. Turning to `O=C(O)CC(NC(=O)c1nc(-c2ccccc2)oc1C(F)(F)F)C1CCCCC1` (centres unmarked) [Example 68, 3-Cyclohexyl-3-[(2-phenyl-5-trifluoromethyl-oxazole-4-carbonyl)-amino]-propionic acid], the half-maximal inhibitory concentration (IC50) was 14.8 µM.
On to `Cc1oc(-c2ccccc2F)nc1C(=O)N[C@@H](CC(=O)O)c1ccc(F)cc1` [Example 37, (S)-3-(4-Fluoro-phenyl)-3-{[2-(2-fluoro-phenyl)-5-methyl-oxazole-4-carbonyl]-amino}-propionic acid], for which the half-maximal inhibitory concentration (IC50) was 4.2 µM.
Next, `CCCC1CCCCN1C(=O)c1cc(C(=O)N[C@@H](CC(=O)O)c2ccccc2C)nn1CC` (stereo partly drawn) [Example 114, (S)-3-{[1-Ethyl-5-(2-propyl-piperidine-1-carbonyl)-1H-pyrazole-3-carbonyl]-amino}-3-o-tolyl-propionic acid]: 0.81 µM; `COc1cccc([C@H](CC(=O)O)NC(=O)c2nc(-c3ccccc3)oc2C)c1OC` [Example 66, (S)-3-(2,3-Dimethoxy-phenyl)-3-[(5-methyl-2-phenyl-oxazole-4-carbonyl)-amino]-propionic acid]: 12.5 µM.
Under `Cc1ccccc1[C@H](CC(=O)O)NC(=O)c1cc(-c2ccccc2)n(Cc2ccccc2)n1` [Example 98, (S)-3-[(1-Benzyl-5-phenyl-1H-pyrazole-3-carbonyl)-amino]-3-o-tolyl-propionic acid] stands 0.075 µM; under `CC(C)c1oc(-c2ccccc2)nc1C(=O)N[C@@H](CC(=O)O)c1ccc(Cl)cc1Cl` [Example 105, (S)-3-(2,4-Dichloro-phenyl)-3-[(5-isopropyl-2-phenyl-oxazole-4-carbonyl)-amino]-propionic acid], 9.21 µM; under `O=C(O)C[C@H](NC(=O)c1nc(-c2ccccc2)n(-c2ccccc2)n1)c1ccccc1` [Example 69, (S)-3-[(1,5-Diphenyl-1H-[1,2,4]triazole-3-carbonyl)-amino]-3-phenyl-propionic acid], 0.387 µM.
Under `O=C(O)C[C@H](NC(=O)CCc1nc(-c2ccccc2F)no1)c1cccc(C(F)(F)F)c1` [Example 113, (S)-3-{3-[3-(2-Fluoro-phenyl)-[1,2,4]oxadiazol-5-yl]-propionylamino}-3-(3-trifluoromethyl-phenyl)-propionic acid] stands greater than 10 µM; under `COc1cccc([C@H](CC(=O)O)NC(=O)c2nc(-c3ccccc3)n(-c3ccccc3)n2)c1` [Example 102, (S)-3-[(1,5-Diphenyl-1H-[1,2,4]triazole-3-carbonyl)-amino]-3-(3-methoxy-phenyl)-propionic acid], 0.44 µM.
For `Cc1ccccc1[C@H](CC(=O)O)NC(=O)c1cc(-c2ccccc2)on1` [Example 2, (S)-3-[(5-Phenyl-isoxazole-3-carbonyl)-amino]-3-o-tolyl-propionic acid], the half-inhibitory concentration (IC50) was 6.96 µM.
As to `CC(C)c1oc(-c2ccccc2)nc1C(=O)N[C@@H](CC(=O)O)c1ccccc1` [Example 22, (S)-3-[(5-Isopropyl-2-phenyl-oxazole-4-carbonyl)-amino]-3-phenyl-propionic acid], the concentration for half-maximal inhibition (IC50) was found to be 1.04 µM.
Next, `Cc1ccccc1[C@H](CC(=O)O)NC(=O)c1nn(C)cc1NS(=O)(=O)CC1CCCCC1` [Example 119, (S)-3-[(4-Cyclohexylmethanesulfonylamino-1-methyl-1H-pyrazole-3-carbonyl)-amino]-3-o-tolyl-propionic acid]: greater than 10 µM.
Under `O=C(O)C[C@H](NC(=O)c1noc(-c2cccc(F)c2F)n1)c1ccccc1C(F)(F)F` [Example 101, (S)-3-{[5-(2,3-Difluoro-phenyl)-[1,2,4]oxadiazole-3-carbonyl]-amino}-3-(2-trifluoromethyl-phenyl)-propionic acid] stands greater than 10 µM; under `O=C(O)C[C@H](NC(=O)c1nc(-c2ccccc2)n(-c2ccccc2)n1)c1ccc(F)cc1` [Example 91, (S)-3-[(1,5-Diphenyl-1H-[1,2,4]triazole-3-carbonyl)-amino]-3-(4-fluoro-phenyl)-propionic acid], 0.517 µM.
Under `C[C@@](CC(=O)O)(NC(=O)CCc1nc(-c2ccccc2F)no1)c1ccccc1` [Example 51, (S)-3-{3-[3-(2-Fluoro-phenyl)-[1,2,4]oxadiazol-5-yl]-propionylamino}-3-phenyl-butyric acid] stands greater than 10 µM.
In the case of `O=C(O)C[C@@H](Cc1ccccc1)NC(=O)CCc1nc(-c2ccccc2F)no1` [Example 49, (R)-3-{3-[3-(2-Fluoro-phenyl)-[1,2,4]oxadiazol-5-yl]-propionylamino}-4-phenyl-butyric acid], the IC50 is greater than 10 µM.
Next, `Cc1oc(-c2ccccc2F)nc1C(=O)N[C@@H](CC(=O)O)c1cccc(Cl)c1` [Example 61, (S)-3-(3-Chloro-phenyl)-3-{[2-(2-fluoro-phenyl)-5-methyl-oxazole-4-carbonyl]-amino}-propionic acid]: 0.189 µM; `O=C(O)C[C@H](NC(=O)CCc1nc(-c2ccccc2F)no1)c1ccccc1F` [Example 59, (S)-3-(2-Fluoro-phenyl)-3-{3-[3-(2-fluoro-phenyl)-[1,2,4]oxadiazol-5-yl]-propionylamino}-propionic acid]: 0.337 µM.
Under `Cc1oc(-c2ccccc2)nc1C(=O)N[C@@H](CC(=O)O)c1cccc(Cl)c1` [Example 28, (S)-3-(3-Chloro-phenyl)-3-[(5-methyl-2-phenyl-oxazole-4-carbonyl)-amino]-propionic acid] stands 1.11 µM; under `O=C(O)C[C@H](NC(=O)CCc1nc(-c2ccccc2F)no1)c1ccccc1C(F)(F)F` [Example 110, (S)-3-{3-[3-(2-Fluoro-phenyl)-[1,2,4]oxadiazol-5-yl]-propionylamino}-3-(2-trifluoromethyl-phenyl)-propionic acid], greater than 10 µM.
Next, `COc1cccc([C@H](CC(=O)O)NC(=O)c2nc(-c3ccccc3)oc2C)c1` [Example 24, (S)-3-(3-Methoxy-phenyl)-3-[(5-methyl-2-phenyl-oxazole-4-carbonyl)-amino]-propionic acid]: 6.39 µM; `Cc1oc(-c2ccccc2F)nc1C(=O)N[C@@H](CC(=O)O)Cc1ccccc1` [Example 29, (R)-3-{[2-(2-Fluoro-phenyl)-5-methyl-oxazole-4-carbonyl]-amino}-4-phenyl-butyric acid]: 0.542 µM; `Cc1oc(-c2ccccc2)nc1C(=O)N[C@@H](CC(=O)O)c1cccc(F)c1` [Example 8, (S)-3-(3-Fluoro-phenyl)-3-[(5-methyl-2-phenyl-oxazole-4-carbonyl)-amino]-propionic acid]: 5.31 µM.
As for `O=C(O)C[C@H](NC(=O)c1nc(-c2ccccc2)n(-c2ccccc2)n1)c1cccc(Cl)c1Cl` [Example 124, (S)-3-(2,3-Dichloro-phenyl)-3-[(1,5-diphenyl-1H-[1,2,4]triazole-3-carbonyl)-amino]-propionic acid], the IC50 amounted to 0.0509 µM.
Under `O=C(O)C[C@H](NC(=O)c1noc(-c2ccccc2F)n1)c1ccccc1C(F)(F)F` [Example 80, (S)-3-{[5-(2-Fluoro-phenyl)-[1,2,4]oxadiazole-3-carbonyl]-amino}-3-(2-trifluoromethyl-phenyl)-propionic acid] stands 11.9 µM.
With `O=C(O)C[C@H](NC(=O)CCc1nc(-c2ccccc2F)no1)c1cccc(Cl)c1Cl` [Example 112, (S)-3-(2,3-Dichloro-phenyl)-3-{3-[3-(2-fluoro-phenyl)-[1,2,4]oxadiazol-5-yl]-propionylamino}-propionic acid], the concentration for half-maximal inhibition (IC50) is greater than 10 µM.
Under `Cc1ccccc1[C@H](CC(=O)O)NC(=O)c1nc(C(C)C)n(-c2ccccc2Cl)n1` [Example 87, (S)-3-{[1-(2-Chloro-phenyl)-5-isopropyl-1H-[1,2,4]triazole-3-carbonyl]-amino}-3-o-tolyl-propionic acid] stands 0.095 µM; under `O=C(O)C[C@H](NC(=O)CCc1nc(-c2ccccc2F)no1)c1cccc(F)c1` [Example 60, (S)-3-(3-Fluoro-phenyl)-3-{3-[3-(2-fluoro-phenyl)-[1,2,4]oxadiazol-5-yl]-propionylamino}-propionic acid], 22.4 µM.
Next, `O=C(O)C[C@H](NC(=O)CCc1nc(-c2ccccc2F)no1)c1ccc(C(F)(F)F)cc1` [Example 111, (S)-3-{3-[3-(2-Fluoro-phenyl)-[1,2,4]oxadiazol-5-yl]-propionylamino}-3-(4-trifluoromethyl-phenyl)-propionic acid]: greater than 10 µM.
